Source: paper PMC6364417, “Kinase inhibitor library screening identifies synergistic drug combinations effective in sensitive and resistant melanoma cells” (Journal of Experimental & Clinical Cancer Research : CR, 2019)

Legend:
Assay in all cases: Kinase inhibitor library screening, PrestoBlue cell viability, 1 or 10 μM, 72 h
[1] = test system: A375-GP cells (Dabrafenib-resistant); conditions: A375 GP, 72 h; for cell viability, A375 GP, 1μΜ / cell viability, A375 GP, 10μΜ: in %
[2] = test system: 501Mel-XP cells (Vemurafenib-resistant); conditions: 501Mel XP, 72 h
[3] = test system: 501Mel-GP cells (Dabrafenib-resistant); conditions: 501Mel GP, 72 h
[4] = test system: IGR37 cells (parental); conditions: IGR37 Parental, 72 h
[5] = test system: 501Mel cells (parental); conditions: 501Mel Parental, 72 h
Procedure, shortened: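 Normalised to untreated controls, viability percentages came from PrestoBlue measured on a microplate reader following 72 h incubation with drug. Each line was assayed at least twice.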

[6] = test system: IGR37-XP cells (Vemurafenib-resistant); conditions: IGR37 XP, 72 h
[7] = test system: A375 cells (parental); conditions: A375 Parental, 72 h
[8] = test system: IGR37-GP cells (Dabrafenib-resistant); conditions: IGR37 GP, 72 h
[9] = test system: A375-XP cells (Vemurafenib-resistant); conditions: A375 XP, 72 h; for cell viability, A375 XP, 1μΜ / cell viability, A375 XP, 10μΜ: in %

Q: For `CCn1cc(-c2ccnc3[nH]c(-c4cccc(CN(C)C)c4)cc23)c(-c2ccc(NC(=O)N(C)C)cc2)n1` [GSK1070916], which “cell viability (kinase inhibitor library screening)” value ([1]; 1μΜ) is on record?
A: 47.6%

Q: And the “cell viability (kinase inhibitor library screening)” value ([1]; 10μΜ)?
A: 34.9%

Q: And the “cell viability (kinase inhibitor library screening)” value ([2]; 1μΜ)?
A: 90.5%

Q: And the “cell viability (kinase inhibitor library screening)” value ([2]; 10μΜ)?
A: 18.1%

Q: What about the “cell viability (kinase inhibitor library screening)” value ([3]; 10μΜ) of the same compound?
A: 50.8%

Q: And the “cell viability (kinase inhibitor library screening)” value ([4]; 1μΜ)?
A: 94.1%

Q: And the “cell viability (kinase inhibitor library screening)” value ([4]; 10μΜ)?
A: 85.3%

Q: And the “cell viability (kinase inhibitor library screening)” value ([5]; 1μΜ)?
A: 94.0%

Q: And the “cell viability (kinase inhibitor library screening)” value ([5]; 10μΜ)?
A: 36.8%

Q: What about the “cell viability (kinase inhibitor library screening)” value ([6]; 1μΜ) of the same compound?
A: 88.9%

Q: And the “cell viability (kinase inhibitor library screening)” value ([6]; 10μΜ)?
A: 7.5%

Q: What about the “cell viability (kinase inhibitor library screening)” value ([7]; 10μΜ) of the same compound?
A: 36.0%

Q: What about the “cell viability (kinase inhibitor library screening)” value ([7]; 1μΜ) of the same compound?
A: 53.8%

Q: And the “cell viability (kinase inhibitor library screening)” value ([8]; 1μΜ)?
A: 98.0%

Q: What about the “cell viability (kinase inhibitor library screening)” value ([8]; 10μΜ) of the same compound?
A: 46.1%

Q: What about the “cell viability (kinase inhibitor library screening)” value ([9]; 1μΜ) of the same compound?
A: 57.6%

Q: What about the “cell viability (kinase inhibitor library screening)” value ([9]; 10μΜ) of the same compound?
A: 37.9%

Q: With `CC(=O)Nc1cccc(-n2c(=O)n(C3CC3)c(=O)c3c(Nc4ccc(I)cc4F)n(C)c(=O)c(C)c32)c1` [GSK1120212 (Trametinib)] as the compound, how does the “cell viability, A375 GP, 1μΜ” value ([1]; 1μΜ) read?
A: 18.8

Q: What about the “cell viability, A375 GP, 10μΜ” value ([1]; 10μΜ) of the same compound?
A: 16.2

Q: And the “cell viability, 501Mel XP, 1μΜ” value ([2]; 1μΜ, in %)?
A: 75.6

Q: What about the “cell viability, 501Mel XP, 10μΜ” value ([2]; 10μΜ, in %) of the same compound?
A: 62.1

Q: And the “cell viability, 501Mel GP, 1μΜ” value ([3]; 1μΜ, in %)?
A: 90.4

Q: And the “cell viability, 501Mel GP, 10μΜ” value ([3]; 10μΜ, in %)?
A: 77.4

Q: What about the “cell viability, IGR37 Parental, 1μΜ” value ([4]; 1μΜ, in %) of the same compound?
A: 37.2

Q: And the “cell viability, IGR37 Parental, 10μΜ” value ([4]; 10μΜ, in %)?
A: 36.1

Q: What about the “cell viability, 501Mel Parental, 1μΜ” value ([5]; 1μΜ, in %) of the same compound?
A: 55.4

Q: What about the “cell viability, 501Mel Parental, 10μΜ” value ([5]; 10μΜ, in %) of the same compound?
A: 64.9

Q: What about the cell viability, IGR37 XP, 10μΜ ([6]; 10μΜ) of the same compound?
A: 22.1%

Q: And the “cell viability, IGR37 XP, 1μΜ” value ([6]; 1μΜ, in %)?
A: 38.3

Q: What about the “cell viability, A375 Parental, 1μΜ” value ([7]; 1μΜ, in %) of the same compound?
A: 21.7

Q: And the “cell viability, A375 Parental, 10μΜ” value ([7]; 10μΜ, in %)?
A: 21.8

Q: And the cell viability, IGR37 GP, 10μΜ ([8]; 10μΜ)?
A: 56.9%

Q: What about the “cell viability, IGR37 GP, 1μΜ” value ([8]; 1μΜ, in %) of the same compound?
A: 89.3

Q: What about the “cell viability, A375 XP, 1μΜ” value ([9]; 1μΜ) of the same compound?
A: 14.9

Q: And the “cell viability, A375 XP, 10μΜ” value ([9]; 10μΜ)?
A: 14.6

Q: Which results are given for `CCc1cc(Nc2nccc(-c3c(-c4ccc(OC)c(C(=O)Nc5c(F)cccc5F)c4)nc4ccccn34)n2)c(OC)cc1N1CCC(N2CCN(S(C)(=O)=O)CC2)CC1` [GSK1904529A]?
A: cell viability, A375 GP, 1μΜ ([1]; 1μΜ): 98.4; cell viability, A375 GP, 10μΜ ([1]; 10μΜ): 92.6; cell viability, 501Mel XP, 1μΜ ([2]; 1μΜ, in %): 93.0; cell viability, 501Mel XP, 10μΜ ([2]; 10μΜ, in %): 82.3; cell viability, 501Mel GP, 1μΜ ([3]; 1μΜ, in %): 109.2; cell viability, 501Mel GP, 10μΜ ([3]; 10μΜ, in %): 89.5; cell viability, IGR37 Parental, 1μΜ ([4]; 1μΜ, in %): 114.5; cell viability, IGR37 Parental, 10μΜ ([4]; 10μΜ, in %): 96.7; cell viability, 501Mel Parental, 1μΜ ([5]; 1μΜ, in %): 99.4; cell viability, 501Mel Parental, 10μΜ ([5]; 10μΜ, in %): 98.3; cell viability, IGR37 XP, 10μΜ ([6]; 10μΜ): 20.4%; cell viability, IGR37 XP, 1μΜ ([6]; 1μΜ, in %): 98.9; cell viability, A375 Parental, 10μΜ ([7]; 10μΜ, in %): 94.0; cell viability, IGR37 GP, 10μΜ ([8]; 10μΜ): 62.6%; cell viability, IGR37 GP, 1μΜ ([8]; 1μΜ, in %): 98.3; cell viability, A375 XP, 1μΜ ([9]; 1μΜ): 104.6; cell viability, A375 XP, 10μΜ ([9]; 10μΜ): 97.7

Q: Which “Cell viability in kinase inhibitor library screening, A375 GP, 1μΜ” value ([1]; 1μΜ) does the source give for `COc1ncc(-c2ccc3nccc(-c4ccnnc4)c3c2)cc1NS(=O)(=O)c1ccc(F)cc1F` [GSK2126458] here?
A: 14.4

Q: What about the “Cell viability in kinase inhibitor library screening, A375 GP, 10μΜ” value ([1]; 10μΜ) of the same compound?
A: 3.9

Q: And the “Cell viability in kinase inhibitor library screening, 501Mel XP, 1μΜ” value ([2]; 1μΜ, in %)?
A: 2.1

Q: What about the “Cell viability in kinase inhibitor library screening, 501Mel XP, 10μΜ” value ([2]; 10μΜ, in %) of the same compound?
A: 0.8

Q: And the “Cell viability in kinase inhibitor library screening, 501Mel GP, 1μΜ” value ([3]; 1μΜ, in %)?
A: 6.0

Q: What about the “Cell viability in kinase inhibitor library screening, 501Mel GP, 10μΜ” value ([3]; 10μΜ, in %) of the same compound?
A: 0.6

Q: And the “Cell viability in kinase inhibitor library screening, IGR37 Parental, 1μΜ” value ([4]; 1μΜ, in %)?
A: 7.2

Q: And the “Cell viability in kinase inhibitor library screening, IGR37 Parental, 10μΜ” value ([4]; 10μΜ, in %)?
A: 0.469

Q: What about the “Cell viability in kinase inhibitor library screening, 501Mel Parental, 1μΜ” value ([5]; 1μΜ, in %) of the same compound?
A: 3.1

Q: What about the “Cell viability in kinase inhibitor library screening, 501Mel Parental, 10μΜ” value ([5]; 10μΜ, in %) of the same compound?
A: 0.9

Q: What about the Cell viability in kinase inhibitor library screening, IGR37 XP, 10μΜ ([6]; 10μΜ) of the same compound?
A: 1.1%

Q: What about the “Cell viability in kinase inhibitor library screening, IGR37 XP, 1μΜ” value ([6]; 1μΜ, in %) of the same compound?
A: 7.6

Q: What about the “Cell viability in kinase inhibitor library screening, A375 Parental, 10μΜ” value ([7]; 10μΜ) of the same compound?
A: 3.2

Q: And the “Cell viability in kinase inhibitor library screening, A375 Parental, 1μΜ” value ([7]; 1μΜ)?
A: 15.7

Q: What about the Cell viability in kinase inhibitor library screening, IGR37 GP, 10μΜ ([8]; 10μΜ) of the same compound?
A: 2.7%

Q: And the “Cell viability in kinase inhibitor library screening, IGR37 GP, 1μΜ” value ([8]; 1μΜ, in %)?
A: 9.1

Q: And the “Cell viability in kinase inhibitor library screening, A375 XP, 1μΜ” value ([9]; 1μΜ)?
A: 13.7

Q: What about the “Cell viability in kinase inhibitor library screening, A375 XP, 10μΜ” value ([9]; 10μΜ) of the same compound?
A: 2.8
